Read-outs that look alike come from different tables or passages of the source.

One data set has as its target T1, Aurora-A kinase (Homo sapiens, UniProt O14965).
T1 sequence (O14965 1-403): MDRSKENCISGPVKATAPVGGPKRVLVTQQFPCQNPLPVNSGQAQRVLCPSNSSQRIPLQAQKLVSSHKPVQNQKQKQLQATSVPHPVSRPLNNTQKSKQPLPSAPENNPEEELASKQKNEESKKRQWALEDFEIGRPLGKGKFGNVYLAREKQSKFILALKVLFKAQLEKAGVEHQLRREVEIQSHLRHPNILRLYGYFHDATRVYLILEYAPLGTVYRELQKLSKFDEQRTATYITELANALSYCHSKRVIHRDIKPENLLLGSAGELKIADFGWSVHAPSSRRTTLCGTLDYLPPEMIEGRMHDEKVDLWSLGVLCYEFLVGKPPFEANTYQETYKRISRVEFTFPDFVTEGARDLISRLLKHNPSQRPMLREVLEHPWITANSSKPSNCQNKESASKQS
The experiment in a line: ChEF-based assay (PhosphoSens) of Aurora-A kinase activity.

For data set [1], the system named is A375 melanoma human tumor xenograft. Set-up: method as in PMID 16204078. The note with it: A375 melanoma human tumor xenograft model; cited from earlier work. (In xenograft studies the graft and the host belong to different species.)
The test system of data set [2] is various cancerous cell lines. Also on record: method as in PMID 16204078. Particulars: cited from earlier work.
Another data set has as its system DLBC lymphoma cell lines. Set-up: method as in PMID 31850205. The note with it: cited from earlier work.

Description for Aurora-A kinase: The reaction wells were mixed, and the relative fluorescence unit (RFU) data were collected every 3 min for 30 min at 30 °C. The used λEx/Em of the chelated Mg^2+ with the Sox was 360/485 nm.

What is called IC50 is the midpoint of a concentration-inhibition curve. Molecule “4-((5-amino-1-((3,5-bis(trifluoromethyl)phenyl)sulfonyl)-1H-1,2,4-triazol-3-yl)amino)benzenesulfonamide [Compound 1d]” came in with an IC50 against Aurora-A kinase (Mean ± SEM of 3 independent experiments, 1.25 nM Aurora-A kinase, 15 µM ATP, 10 µM CSox-peptide substrate) of 1780 ± 340 nM. The term melting point denotes the temperature, or range, at which the solid turns liquid. Turning to `Nc1nc(Nc2ccc(S(N)(=O)=O)cc2)nn1S(=O)(=O)c1ccccc1` [Compound 1a, 4-((5-amino-1-(phenylsulfonyl)-1H-1,2,4-triazol-3-yl)amino)benzenesulfonamide], the melting point is 229 to 231 °C. The IC50 against Aurora-A kinase came out at 130 ± 60 nM. `Nc1nc(Nc2ccc(S(N)(=O)=O)cc2)nn1S(=O)(=O)c1c(F)cccc1F` [Compound 1b, 4-((5-amino-1-((2,6-difluorophenyl)sulfonyl)-1H-1,2,4-triazol-3-yl)amino)benzenesulfonamide] returned an IC50 against Aurora-A kinase of 210 ± 20 nM.

`Cc1ccc(S(=O)(=O)n2nc(Nc3ccc(S(N)(=O)=O)cc3)nc2N)cc1` [Compound 1c, 4-((5-amino-1-tosyl-1H-1,2,4-triazol-3-yl)amino)benzenesulfonamide] had an IC50 at Aurora-A kinase of 230 ± 20 nM. Turning to `Nc1nc(Nc2ccc(S(N)(=O)=O)cc2)nn1C(=O)c1c(F)cccc1F` [JNJ-7706621], in data set [1], the tumor size result is “significantly reduced the tumor size”. The “growth inhibition of normal cells relative to cancerous cell lines” value in data set [2] (normal cell growth) is reported as “several folds less potent at inhibiting normal cell growth”. The antiproliferative activity entry in data set [2] (various cancerous cell lines) is recorded as “potent antiproliferative activity”. Besides, in the data set on DLBC lymphoma cell lines, the “reversal of resistance to CD37-targeted radioimmunotherapy” value was “promoted the reversal of resistance”.
